# Entries after “also recorded” stand apart in the source; their conditions may differ. [5mC] = 5-methylcytosine
# Experiments:
# DCMTase [1] = molecular target: T1, DCMTase (Mus musculus, UniProt P13864); test: Product inhibition studies, steady-state; type: biochemical; design: key to Type of Inhibition: C: competitive; NC: noncompetitive; UC: uncompetitive inhibition
# T1 construct: DCMTase was purified from mouse erythroleukemia cells as previously described; endogenous in cells; host or cells: mouse erythroleukemia (MEL) cells; enzyme purified from them
# Procedure: (§1) After preincubation at room temperature for up to 10 minutes, reactions were initiated by the addition of poly(dI.dC:dI.dC) and, if indicated, inhibitor DNA or reaction products. […] Single-stranded DNA was heated to 90° C. and quick cooled on ice, prior to initiation of the reaction. Freeze-thawed DNA produced equivalent results. Incubations were at 37° C. for 60 minutes. The poly(dI.dC:dI.dC) concentrations were 2.0, 4.0, 8.0, 16, 35, 80, 160, 250, 400, 700 and 1000 pM. In some experiments, GC-box a/b was the substrate, using 100 nM DCMTase and DNA concentrations of 0.20, 0.40, 1.0, 2.0, 4.0, 8.0, 15, 23 and 35 μM. The reaction was stopped after 60 minutes by transferring 20 μL of the reaction onto a DE 81 filter paper that was processed as described (Flynn et al., 1996). The radioactivity above the background, determined from assays without added poly(dI.dC:dI.dC), was converted to initial velocities and expressed as picomoles of methyl groups transferred to poly(dI.dC:dI.dC) per hour and plotted in double reciprocal form.
# The AdoHcy concentrations were: squares, 0; diamonds, 0.75 ,μM; circles, 1.5 μM; triangles, 3.0 μM; notched squares, 6.0 μM. Incubations were at 37° C. for 60 minutes.
# For the double reciprocal plot of AdoHcy product inhibition with varying poly(dI.dC:dI.dC) concentrations (FIGS. 17A-C), reactions contained 20 nM DCMTase in 100 mM Tris pH 8.0, 10 mM EDTA, 10 mM DTT, 200 μg/mL BSA. Incubations were at 37° C. for 60 minutes. The poly(dI.dC:dI.dC) concentrations were 2.5, 5.0, 10, and 20 pM. The AdoHcy concentrations were: squares, 0; diamonds, 15 μM; circles, 30 μM.
# The poly(dId^mC:dId^mC) concentrations were: squares, 0; diamonds, 5.0 pM; circles, 10 pM; triangles, 20 pM. Incubations were at 37° C. for 60 minutes. Experimental data are shown scattered around lines derived from a fit to equation 5 for noncompetitive inhibition.
# 200 μg/mL BSA. Incubations were at 37° C. for 60 minutes. The poly(dI.dC:dI.dC) concentrations were 20, 40, 80, 120 and 160 pM. The poly(dId^mC:dId^mC) concentrations were: squares, 0; triangles, 34 pM; circles, 45 pM; diamonds, 68, notched squares, 90 pM. Experimental data are shown scattered around lines. In FIG. 19A, lines are derived from a fit to equation 4 for competitive inhibition. In FIG. 19B, lines are derived from a fit to equation 5 for noncompetitive inhibition. Both fittings are not acceptable.
# (§2) The Michaelis-Menton equation was used for studies into DNA length contributions to catalysis using KaliedaGraph 2.1.2 (Synergy Software). For mechanistic determinations, the nomenclature used is that of Cleland, W. W., 1963a. Biochimi. Biophysi. Acta 67:104-137. All steady-state data were analyzed using regression analyses of the appropriate initial velocity equation, listed below, using the Cleland programs (Cleland, W. W., 1979, Statistical analysis of enzyme kinetic data. Methods in Enzymol. 63:103-138).
# (§3) The algorithms perform a non-linear least squares fit to the entire data set. Mechanistic determinations were made by comparison of the sigma values associated with the fit to each equation. The standard errors associated with fitted parameters and graphical analysis of the experimental data scattered around the calculated best fit lines were also considered in making an assignment.
# [2] = test system: mouse erythroleukemia (MEL) cells; test: Anti-proliferative effects on MEL cells; type: cell-based; settings: for growth rate of MEL cells: incubation with inhibitor, concentration dependent
# DCMTase [3] = molecular target: T1, DCMTase; test: Dead-end inhibition of poly(dI.dC:dI.dC) methylation by single-stranded DNA; type: biochemical
# Procedure: as §1
# The poly(dI.dC:dI.dC) concentrations were 10, 13, 20, 40 and 100 pM. The GC-box b concentrations were: diamonds, 0; circles, 0.75 μM; triangles, 1.5 μM; squares, 5.0 μM. Incubations were at 37° C. for 60 minutes.
# The poly(dI.dC:dI.dC) concentrations were 1.5, 3.0, 7.5, 15 and 20 pM. The GC-box b^MET concentrations were: squares, 0; circles, 10 nM; diamonds. 20 nM; triangles, 40 nM. Incubations were at 37° C. for 60 minutes.
# The GC-box b^MET concentrations were: squares, 0; circles, 20 nM; diamonds, 40 nM; triangles, 80 nM. Incubations were at 37° C. for 60 minutes.
# as §2, §3
# DCMTase [4] = molecular target: T1, DCMTase; settings: previous kinetic study (Flynn et al., 1996); cited from earlier work
# [5] = molecular target: DNA cytosine-5 methyltransferase (DCMTase, Dnmt1) (Mus musculus) (UniProt P13864); test: inhibition
# [6] = molecular target: DNA cytosine-5 methyltransferase (DCMTase, Dnmt1) (Mus musculus) (UniProt P13864); test: EMSA; settings: pooled generation-5 sequences vs starting pool
# [7] = molecular target: T2, DNA cytosine-5 methyltransferase (DCMTase, Dnmt1) (Mus musculus, UniProt P13864 P13864:1-1620); test: EMSA; unit printed as mM (text indicates micromolar); settings: tags: none, purified from mouse erythroleukemia (MEL) cells
# Procedure: Gel mobility shift assays (GMSA) were performed with minor revisions to the original procedures (Fried, M., & Crothers, D. M., 1981, Equilibria and kinetics of the lac repressor-operator interactions by polyacrylamide gel electrophoresis, Nucleic Acids Res. 9:6505-6525; Garner, M. M. & Revzin, A., 1981, A gel electrophoresis method for quantifying the binding proteins to specific DNA regions: applications to components of the Escherichia coli lactose operon regulatory system, Nucleic Acids Res. 13:3047-3060). All reactions were done in 100 mM Hepes pH 7.4, 10 mM EDTA, 10 mM DTT, […], 5% glycerol using the indicated P-labeled DNA and DCMTase concentrations, incubated on ice for 5 minutes and loaded on a 1×TBE(89 mM Tris-HCl pH 8.3, 89 mM boric acid, 2 mM EDTA), 6% polyacrylamide gel. Electrophoresis was done at 250 V, 9 mA for 2 hours at 4° C. and the dried gel was exposed to film overnight. The reaction conditions for buffer, temperature, incubation time, cofactor addition and gel composition have all been optimized. Only slightly better complex resolution was obtained under the listed conditions compared to a 10 minute incubation at 37° C. prior to gel loading at room temperature and containing either cofactor S-adenosyl-L-methionine, product S-adenosyl-L-homocysteine, or the AdoMet analog sinefungin. Hepes reaction buffer at pH 7.4 produced sharper banding than Tris-HCl at pH 8.0. […] Subsequent assays used a limiting and constant enzyme concentration with varying DNA concentrations.
# (§4) Steady-state kinetic analyses of the DCMTase with the same 30 base-pair DNA substrates used in these studies indicate that Kₘ^DNA is 1000- to 50,000-fold higher (Flynn, J., et al., 1996, Murine DNA cytosine-C5 methyltransferase: Pre-steady- and steady-state kinetic analyses with regulatory DNA sequences, Biochemistry 35:7308-7315) than the DNA concentrations used to generate FIG. 2 and used by Reale et al, 1995, supra. […] Therefore, the stability of protein:DNA was determined by keeping the enzyme at a constant concentration (100 nM) and varying the amount of added DNA (Dubey & Roberts, 1992, supra).
# [8] = molecular target: T2, DNA cytosine-5 methyltransferase …; test: EMSA; unit printed as mM (text indicates micromolar); 100 nM enzyme, DNA varied; Hepes pH 7.4, 10 mM EDTA, on ice, no AdoMet; settings: tags: none; purified from mouse erythroleukemia (MEL) cells; label: 32P
# Procedure: (§5) Gel mobility shift assays (GMSA) were performed with minor revisions to the original procedures (Fried, M., & Crothers, D. M., 1981, Equilibria and kinetics of the lac repressor-operator interactions by polyacrylamide gel electrophoresis, Nucleic Acids Res. 9:6505-6525; Garner, M. M. & Revzin, A., 1981, A gel electrophoresis method for quantifying the binding proteins to specific DNA regions: applications to components of the Escherichia coli lactose operon regulatory system, Nucleic Acids Res. 13:3047-3060). […]
# as §4
# [9] = molecular target: T2, DNA cytosine-5 methyltransferase …; test: EMSA; unit printed as mM (text indicates micromolar); at limit of resolution; settings: tags: none; purified from mouse erythroleukemia (MEL) cells
# Procedure: as §5, §4
# Sequence of DNA cytosine-5 methyltransferase (DCMTase, Dnmt1) (Mus musculus) (P13864 whole entry): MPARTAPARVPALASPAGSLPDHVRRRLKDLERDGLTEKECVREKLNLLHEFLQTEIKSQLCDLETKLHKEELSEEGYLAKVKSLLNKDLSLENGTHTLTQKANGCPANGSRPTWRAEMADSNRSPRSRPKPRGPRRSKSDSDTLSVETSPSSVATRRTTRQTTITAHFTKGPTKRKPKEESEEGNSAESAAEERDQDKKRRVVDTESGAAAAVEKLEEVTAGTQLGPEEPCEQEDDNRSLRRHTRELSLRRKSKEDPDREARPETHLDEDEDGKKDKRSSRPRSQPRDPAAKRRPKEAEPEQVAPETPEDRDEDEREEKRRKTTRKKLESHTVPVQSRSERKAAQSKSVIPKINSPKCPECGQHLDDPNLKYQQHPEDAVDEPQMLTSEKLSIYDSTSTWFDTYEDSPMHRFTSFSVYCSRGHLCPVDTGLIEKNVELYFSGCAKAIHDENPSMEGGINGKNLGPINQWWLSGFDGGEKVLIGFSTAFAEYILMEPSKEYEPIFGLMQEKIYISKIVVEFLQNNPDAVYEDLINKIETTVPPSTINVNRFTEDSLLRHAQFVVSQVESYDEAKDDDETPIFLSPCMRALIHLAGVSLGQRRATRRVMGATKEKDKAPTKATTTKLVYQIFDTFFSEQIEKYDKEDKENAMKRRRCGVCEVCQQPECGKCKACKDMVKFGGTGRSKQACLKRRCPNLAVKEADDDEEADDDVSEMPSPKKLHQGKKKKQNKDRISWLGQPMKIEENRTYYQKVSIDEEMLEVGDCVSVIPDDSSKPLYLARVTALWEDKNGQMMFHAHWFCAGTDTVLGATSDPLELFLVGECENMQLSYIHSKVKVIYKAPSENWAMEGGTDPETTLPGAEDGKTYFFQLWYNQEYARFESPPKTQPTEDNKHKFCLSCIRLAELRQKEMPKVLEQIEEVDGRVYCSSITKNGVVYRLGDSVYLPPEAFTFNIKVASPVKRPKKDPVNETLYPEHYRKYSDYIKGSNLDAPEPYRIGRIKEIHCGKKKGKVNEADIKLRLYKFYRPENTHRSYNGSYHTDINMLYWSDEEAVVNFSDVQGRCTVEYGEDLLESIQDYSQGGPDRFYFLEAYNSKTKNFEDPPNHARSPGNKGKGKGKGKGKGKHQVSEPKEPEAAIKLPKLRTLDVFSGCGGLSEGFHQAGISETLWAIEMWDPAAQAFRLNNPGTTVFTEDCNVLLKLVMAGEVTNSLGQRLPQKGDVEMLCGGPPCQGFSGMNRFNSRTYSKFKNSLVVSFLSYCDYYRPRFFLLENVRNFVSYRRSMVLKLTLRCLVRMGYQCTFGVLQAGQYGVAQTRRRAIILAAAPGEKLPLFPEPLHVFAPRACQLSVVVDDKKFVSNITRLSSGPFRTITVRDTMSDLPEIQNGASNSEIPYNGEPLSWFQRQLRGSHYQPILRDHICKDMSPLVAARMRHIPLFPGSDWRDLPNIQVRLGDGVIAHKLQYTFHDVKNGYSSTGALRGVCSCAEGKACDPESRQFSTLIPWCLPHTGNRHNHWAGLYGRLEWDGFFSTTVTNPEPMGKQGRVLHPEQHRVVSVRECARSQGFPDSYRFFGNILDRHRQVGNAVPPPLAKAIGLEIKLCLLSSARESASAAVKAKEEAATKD
# T1 sequence (P13864 whole entry): as above
# T2 sequence (P13864 whole entry, one chain of several): as the sequence (P13864 whole entry) above
molecule,measurement,setting,value
"Nc1ncnc2c1ncn2[C@@H]1O[C@H](CSCC[C@H](N)C(=O)O)[C@@H](O)[C@H]1O [AdoHcy, S-adenosyl homocysteine]",Ki,"DCMTase [1]; varied AdoMet, fixed poly(dIdC:dIdC), competitive, read-out: Inhibition Constant Kis",1400 nM
same,Ki,"DCMTase [1]; varied poly(dI.dC:dI.dC), low AdoMet concentrations, read-out: Kii, noncompetitive model",2500 nM
same,Ki,"DCMTase [1]; varied poly(dI.dC:dI.dC), low AdoMet concentrations, read-out: Kii, uncompetitive model",2000 nM
same,Ki,"DCMTase [1]; varied poly(dI.dC:dI.dC), low AdoMet concentrations, read-out: Kis, noncompetitive model",63000 nM
same,Type of Inhibition,"DCMTase [1]; varied substrate AdoMet, fixed substrate IC",C
same,Type of Inhibition,"DCMTase [1]; varied substrate IC, fixed substrate AdoMet",NC/UC
"GC-box p^MET: SEQ ID NO:10 with a phosphorothioate backbone (DNA CTGGATCCTTGCCCCGCCCCTTGAATTCCC; listed as DNA, chemistry not fully specified)",occurrence of large multi-nucleate cells among regularly sized cells,"[2]; five days of incubation, 10 micromolar",about one in fifty
same,growth rate of MEL cells,[2],slows down the growth rate
"5′-CTGGATCCTTGCCCCGCCCCTTGAATTCCC-3′ (DNA, backbone not given here) [GC-box b]",Mode of Inhibition,DCMTase [3],Noncompetitive with poly(dIdC:dIdC)
same,"alpha factor, Kii/Kis",DCMTase [3],1.9
same,Ki,"DCMTase [3]; poly(dI.dC:dI.dC) varied, noncompetitive fit, 15 μM AdoMet, read-out: Kii",6800 nM
same,Ki,"DCMTase [3]; poly(dI.dC:dI.dC) varied, noncompetitive fit, 15 μM AdoMet, read-out: Kis",3600 nM
same,enzyme activity with single-stranded substrate,DCMTase [4],no detectable enzyme activity
"poly(dI.dC:dI.dC), average 6250 or 5000 bp",Ki,"[5]; substrate inhibition, 6250 bp, apparent Km 5.5 +/- 0.9 pM, true Km 36 +/- 5 pM",1 nM
GGGAATTCATGGATCCTAAANNNNNNNNNNNNCGNNNNNNNNNNNNTTTCAAGCTTGTGATTCCC (double strand) [generation-5 selected pool],binding signal (fold tighter than starting pool),[6],2
"poly(dI.dmC:dI.dmC), fully methylated",Ki,"[5]; 5mC at all M.SssI sites, Kis, noncompetitive product inhibition vs AdoMet, Kii 30 +/- 12 pM",0.0053 nM
"5′-CTGGATCCTTGCCC^mCGCCCCTTGAATTCCC-3′ (DNA CTGGATCCTTGCCCCGCCCCTTGAATTCCC; DNA, [5mC] at 15, backbone not given here) [GC-box b^MET]",Mode of Inhibition,DCMTase [3],Uncompetitive with poly(dIdC:dIdC); also recorded: Competitive with Adomet
same,Ki,"DCMTase [3]; AdoMet varied, constant 50 pM poly(dI.dC:dI.dC), competitive fit, read-out: Inhibition Constant, slope derived (Kis), equation 4",25 nM
same,Ki,"DCMTase [3]; Kii and Kis, read-out: the two inhibition constants in agreement",~20 nM
same,lower affinity for free enzyme in the absence of poly(dI.dC:dI.dC),DCMTase [3]; compared with Example 1 binding,120 fold
same,Ki,"DCMTase [3]; poly(dI.dC:dI.dC) varied, uncompetitive fit, 10 μM AdoMet, read-out: Inhibition Constant, intercept derived Kii, equation 6",20 nM
same,Ki,"DCMTase [3]; read-out: KI, dissociation constant from the DCMTase:poly(dI.dC:dI.dC) complex",2.5 nM
same,lower inhibition constant (increased inhibition) versus GC-box b,DCMTase [3]; single 5-mC substitution,200 fold
same,growth rate of MEL cells,[2],slows down the growth rate
"5′-GGGAATTCAAGGGGCGGGGCAAGGATCCAG-3′ (DNA, backbone not given here) [GC-box a]",enzyme activity with single-stranded substrate,DCMTase [4],no detectable enzyme activity
CRE a/b (dsDNA) DNA 1: GGGAATTCAAATGACGTCAAAAGGATCCAG DNA 2: CTGGATCCTTTTGACGTCATTTGAATTCCC,Kd,[7]; label: 32P,1500 nM
"GC-box a/bMET (dsDNA, 5mC at position 15 of strand b (hemi-methylated CpG)) DNA 1: GGGAATTCAAGGGGCGGGGCAAGGATCCAG DNA 2: CTGGATCCTTGCCCCGCCCCTTGAATTCCC",Kd,[8],360 nM
GGGAATTCAAATGACGTCAAAAGGATCCAG (ssDNA) [CRE a],Kd,[9],> 50000 nM
GGGAATTCAAGGGGCGGGGCAAGGATCCAG (ssDNA) [GC-box a],Kd,[7],1200 nM
CTGGATCCTTTTGACGTCATTTGAATTCCC (ssDNA) [CRE b],Kd,[9],> 50000 nM
"CRE aMET/b (dsDNA, 5mC at position 15 of strand a (hemi-methylated CpG)) DNA 1: GGGAATTCAAATGACGTCAAAAGGATCCAG DNA 2: CTGGATCCTTTTGACGTCATTTGAATTCCC",Kd,[7]; label: 32P,1000 nM

# From US20030114402A1, “Modulators of DNA cytosine-5 methyltransferase and methods for use thereof” (The Regents of the University of California, priority 1997, published 2003)
